In the METLIN SMRT retention time set (Domingo-Almenara et al. 2019):

Assay: gradient 5% acetonitrile 3 min, to 50% in 2 min, to 85% in 15 min, held 3 min, 100 µL/min
Conditions: column: Zorbax Extend-C18 2.1 x 50 mm; eluents: water / acetonitrile, 0.1% formic acid
In short: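 The system's dead and dwell volumes were 40 μL and 900 μL, with a Zorbax Extend-C18 column (2.1 × 50 mm, 1.8 μm) run at 100 μL/min in water and acetonitrile containing 0.1% formic acid each. Pure standards were analyzed in mixtures of ~100 molecules by HPLC–quadrupole time-of-flight mass spectrometry in positive and negative ionization mode. Retention time was assigned from computationally picked, manually inspected adduct peaks.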

Structure (SMILES) | RP-LC retention time [s]
Cc1cc(N2CCN(C(=O)Nc3cccc(C(F)(F)F)c3)CC2)nc(N2CCCCC2)n1 | 789
CN1C(=O)C(CC(=O)N2CCCCCC2)Sc2ncccc21 (centres undefined) | 705
CCc1nc2nccc(-c3ccc(OC)c(OC)c3)n2n1 | 702
CC(=O)N1CCN(S(=O)(=O)c2cc3c4c(c2)CCC(=O)N4CCC3)CC1 | 647
CC(C)c1ccc(-n2nc(N3CCN(C(=O)CCC(=O)N4CCOCC4)CC3)ccc2=O)cc1 | 695
O=C(Cn1ccnc1-c1ccnc(N2CCCCC2)c1)NC1CCCCC1 | 624
Fc1cnccc1CN1CCC(N2CC3(CCCCC3)C2c2ccccc2)CC1 (centres undefined) | 596
Cc1ccc(-c2cn3c(CC(=O)NC4CCCCCC4)csc3n2)cc1C | 894
O=C([C@@H]1C[C@H](F)CN1S(=O)(=O)c1cc(F)cc(F)c1)N1CCCCC1 | 837
O=C(CN1C(=O)CCCc2ccccc21)N1CCN(c2ccc(Cl)cc2)CC1 | 944
CCCCC(=O)NC1(C(F)(F)F)C(=O)N(CCc2ccccc2)C(C)=C1C(C)=O (centres undefined) | 980
O=C(NCC1CN(CC2CC2)CC12CCCCC2)Nc1cc(F)cc(F)c1 (centres undefined) | 760
Cc1ccc(CNS(=O)(=O)c2c(-c3nnc(C)o3)c(C)n(C)c2C)o1 | 780
CC(C)CC(=O)Nc1ccc2c(c1)nc(CN1CCCC1)n2C(C)C | 612
COC(=O)c1c(C)[nH]c(C(=O)N2CCCC(C(=O)NCc3ccccc3)C2)c1C (centres undefined) | 732
Cc1nc(NCCNC(=O)c2cccs2)cc(N2CCCC2)n1 | 560
c1ccc(-n2nnnc2N2CCN(c3ccccn3)CC2)cc1 | 571
CCOc1ccccc1C(=O)N1CCN(c2nnc(SCC(=O)NC(C)C)s2)CC1 | 673
Cc1ccc(N2CCN(C(=O)c3cn4c(n3)COCC4)CC2)cc1 | 651
Cn1cc(C(=O)N2CCC(N(Cc3ccccc3)C3CCOCC3)CC2)cn1 | 573
COC(=O)CNC(=O)N1CCN(c2nc3ccccc3n3cccc23)CC1 | 590
Cc1cc(C)c(S(=O)(=O)N2CCC(c3cc(N)on3)CC2)cc1C | 879
CCOc1ccc(-c2noc(-c3nc(C)no3)n2)cc1 | 986
CCc1cc2c(N3CCCC(C(=O)NCCCN4CCN(C)CC4)C3)ncnc2s1 (centres undefined) | 585

Structure (SMILES) | RP-LC retention time [s]
CCOc1ccc(CN2CCc3nc(N4CCOCC4)ncc3C2)cc1OCC | 577
CC(C)C(=O)n1nc(-c2ccccc2)nc1N | 888
COc1ccc(NC(=O)Cn2nc3n(c2=O)CCCCC3)cc1Cl | 692
O=C(Cc1ccccc1Cl)NC(c1ccccc1)c1nnc(N2CCCCC2)o1 (centres undefined) | 899
COc1ccc2c(c1)C1(CCN(C(=O)Nc3ccc(F)cc3)C1)C(=O)N2 (centres undefined) | 683
O=C(NCc1ccc(F)c(Cl)c1)c1csc(C(=O)NC2CCCC2)n1 | 976
COc1cc2c(cc1CNC(=O)Cn1cc(C(=O)c3ccco3)c3ccccc31)OCCCO2 | 902
c1ccc(CN2CCN(c3c4c(nc5nc(-c6ccccc6)nn35)CCCC4)CC2)cc1 | 668
COc1nn(C)cc1C(=O)NCC(=O)N1CCc2ccccc2C1 | 657
O=C(c1cc(-c2ccccc2)n[nH]1)N1CCN(c2ccc(N3CCOCC3)nn2)CC1 | 595
CCOC(=O)C1=C(CN2CCN(C(C)CC)CC2)NC(=O)NC1c1ccccc1 (centres undefined) | 625
O=C(Cn1c(C2CCCO2)nc2ccccc21)NCc1cccs1 (centres undefined) | 615
CCn1c(=O)sc2cc(S(=O)(=O)N3CCC(C(=O)N4CCC(C)CC4)CC3)ccc21 | 900
CCOc1cccc(CN2C(=O)C3(CCOCC3)CC2c2nnnn2C(C)(C)C)c1 (centres undefined) | 820
CCc1sc(NC(=O)Cc2csc(C)n2)nc1-c1ccc(Br)cc1 | 1080
O=C(Cn1ncc2c(N3CCN(c4ccccn4)CC3)ncnc21)NCc1ccc(F)c(Cl)c1 | 628
CCCCNC(=O)C1CCN(c2nc3ccc(-c4cncnc4)nc3s2)CC1 | 788
O=C(C1COc2ccccc2O1)N1CCCC(COCc2ccccc2)C1 (centres undefined) | 1030
Cc1ccc(S(=O)(=O)N2CC(Cc3nncn3C3CCCC3)C2)cc1Cl | 795
CC1(C(=O)N2CCN(c3ccccn3)CC2)CCCCC(=O)N1 (centres undefined) | 552
CCN(Cc1ccccc1)c1ccc(-c2noc(CN3CCCC(C)C3)n2)cn1 (centres undefined) | 792
CCn1ccc(C(=O)N2CCCC2c2ccccc2C)n1 (centres undefined) | 870
OC(c1cc(C(F)(F)F)nc2c(C(F)(F)F)cccc12)C1CCCCN1 (centres undefined) | 754
COC(CNC(=O)C1CCN(C(=O)c2ncn3c2COC(c2ccc(F)cc2)C3)CC1)OC (centres undefined) | 674

Now from value to compound:

RP-LC retention time [s] | Structure (SMILES)
782 | CC(C)NC(=O)C1(c2ccc(NS(C)(=O)=O)cc2)CCCCC1
940 | COc1ccc(-c2csc(NC(=O)CCn3c(=O)oc4ccccc43)n2)cc1
930 | CCCNC(=O)c1cc(-c2ccc(F)cc2)cn1C
849 | O=C(Nc1ccc(Br)cc1)NC1CCN(c2ccccc2)C1=O (centres undefined)
830 | Cc1ccc(-n2nc(N3CCN(C(=O)c4cccs4)CC3)ccc2=O)cc1C
1060 | O=C(c1noc2ccc(S(=O)(=O)N3CCCc4ccccc43)cc12)N1CCCC1
844 | CCCn1c(=O)sc2cc(S(=O)(=O)N3CCC(C(=O)Nc4cc(C)ccn4)CC3)ccc21
932 | CCn1c(=O)sc2cc(S(=O)(=O)N3CCC(C(=O)Nc4cc(C)cc(C)c4)CC3)ccc21
909 | CCCNC(=O)Cn1c(=O)c2cnc(-c3ccc(Cl)cc3)nc2n(C)c1=O
1110 | Cc1ccc(-c2noc(Cn3c(=O)n(Cc4ccco4)c(=O)c4ccccc43)n2)cc1
1260 | Cn1nccc1-c1cccc(-c2noc(-c3cccc(Cl)c3)n2)c1
792 | O=C(Nc1ccc2c(c1)OCCO2)N1CCCC(c2nnnn2-c2ccccc2)C1 (centres undefined)
1060 | COc1cccc(-n2c(=O)c3sccc3n(Cc3nc(-c4ccc(F)c(Cl)c4)no3)c2=O)c1
675 | COC(=O)c1cc2c(=O)n(-c3ccc(NC(C)=O)cc3)ccc2nc1C
917 | CCc1nc(-c2csc(S(=O)(=O)N3CCCC(C(=O)Nc4ccc(OC)cc4)C3)c2)no1 (centres undefined)
686 | Cc1ccc(NS(=O)(=O)c2cc3n(c2)CCCNC3=O)c(Cl)c1
1010 | C=CCN1C(=O)COc2ccc(-c3csc(NC(=O)c4ccc(F)cc4)n3)cc21
1130 | COC(=O)c1c(NC(=O)c2ccc([N+](=O)[O-])o2)sc(Cc2ccc3c(c2)OCO3)c1C
919 | CCOc1ccc2ncc(S(=O)(=O)c3ccc(OC)cc3)c(N3CCOCC3)c2c1
900 | CCOc1ccc(CCNC(=O)c2nc(CCS(=O)(=O)c3ccccc3)no2)cc1OCC
736 | Cc1cc(NC(=O)c2cccc(NS(=O)(=O)c3ccc(F)cc3)c2)no1

RP-LC retention time [s] | Structure (SMILES)
755 | Cc1cc(NC(=O)Cn2c(=O)n(C(C)C)c3ccc(-c4noc(C)n4)cc32)no1
801 | Cc1cc(C(=O)NCC(O)c2cccc3ccccc23)c(C)o1 (centres undefined)
788 | CCc1nc(OCC(=O)Nc2ccc(OC)cc2OC)c2ccccc2n1
691 | COc1ccc(CNC(=O)NCc2cccnc2OC)cc1
938 | CCCn1cc(CCNS(=O)(=O)c2ccc3c(c2)CCC3)c2cccnc21
1050 | COc1ccc(-c2nc(C3CC(=O)N(c4ccc(F)c(Cl)c4)C3)no2)cc1 (centres undefined)
841 | CCCOc1ccc(CNC(=O)C2CCN(c3ncnc4c3oc3ccccc34)CC2)cc1
1250 | CCOc1ccccc1-c1nc(CN(c2ccccc2OC)S(=O)(=O)c2ccccc2C)c(C)o1
712 | Cc1nn(C)c(C)c1C(=O)N1CC(n2cc(COc3ccc(F)cc3)nn2)C1
961 | Cn1c(SCC(=O)Nc2nc(-c3ccccc3)cs2)nnc1-c1cc2ccccc2o1
917 | CC(C)OC(=O)CSc1nnc2c(S(=O)(=O)N3CCN(c4ccc(F)cc4)CC3)cccn12
975 | Cc1ccccc1-c1nnc(COc2ccc(NC(=O)c3n[nH]c4c3CCCC4)cc2)o1
831 | CN1C(=O)c2cccnc2Sc2cc(NC(=O)Cc3cccc(Cl)c3)ccc21
634 | Cc1cc(C)n(Cc2ccc(C(=O)NCC3Cn4cccc4C(=O)N3C)o2)n1 (centres undefined)
942 | Cn1nc(-c2nc(-c3cccc(Cl)c3)no2)ccc1=O
994 | Cc1cc(S(=O)(=O)[C@H]2CS(=O)(=O)C[C@@H]2N2CCN(c3ccccc3)CC2)ccc1F
812 | CSc1cccc(NC(=O)C2CCN(S(=O)(=O)c3cn(C(C)C)cn3)CC2)c1
719 | O=C(Nc1ccc2nncn2c1)c1ccc(Cl)cc1
718 | COCCN1CCn2cc(S(=O)(=O)Nc3cccc(Cl)c3)cc2C1=O
1170 | COc1ccc(OCc2nc(-c3ccc4c(c3)nc(C)c(=O)n4C3CCCC3)no2)cc1
